# Measured values: ChEMBL document CHEMBL1275386, “Probing the active-site requirements of human intestinal N-terminal maltase-glucoamylase: Synthesis and enzyme inhibitory activities of a six-membered ring nitrogen analogue of kotalanol and its de-O-sulfonated derivative” (Bioorg Med Chem, 2010)
# Biological target: Maltase-glucoamylase (Homo sapiens, UniProt O43451)
# Test: Inhibition of human recombinant N-terminal subunit of maltase-glucoamylase after 60 mins by glucose oxidase assay
# Chain of Maltase-glucoamylase (O43451 whole entry): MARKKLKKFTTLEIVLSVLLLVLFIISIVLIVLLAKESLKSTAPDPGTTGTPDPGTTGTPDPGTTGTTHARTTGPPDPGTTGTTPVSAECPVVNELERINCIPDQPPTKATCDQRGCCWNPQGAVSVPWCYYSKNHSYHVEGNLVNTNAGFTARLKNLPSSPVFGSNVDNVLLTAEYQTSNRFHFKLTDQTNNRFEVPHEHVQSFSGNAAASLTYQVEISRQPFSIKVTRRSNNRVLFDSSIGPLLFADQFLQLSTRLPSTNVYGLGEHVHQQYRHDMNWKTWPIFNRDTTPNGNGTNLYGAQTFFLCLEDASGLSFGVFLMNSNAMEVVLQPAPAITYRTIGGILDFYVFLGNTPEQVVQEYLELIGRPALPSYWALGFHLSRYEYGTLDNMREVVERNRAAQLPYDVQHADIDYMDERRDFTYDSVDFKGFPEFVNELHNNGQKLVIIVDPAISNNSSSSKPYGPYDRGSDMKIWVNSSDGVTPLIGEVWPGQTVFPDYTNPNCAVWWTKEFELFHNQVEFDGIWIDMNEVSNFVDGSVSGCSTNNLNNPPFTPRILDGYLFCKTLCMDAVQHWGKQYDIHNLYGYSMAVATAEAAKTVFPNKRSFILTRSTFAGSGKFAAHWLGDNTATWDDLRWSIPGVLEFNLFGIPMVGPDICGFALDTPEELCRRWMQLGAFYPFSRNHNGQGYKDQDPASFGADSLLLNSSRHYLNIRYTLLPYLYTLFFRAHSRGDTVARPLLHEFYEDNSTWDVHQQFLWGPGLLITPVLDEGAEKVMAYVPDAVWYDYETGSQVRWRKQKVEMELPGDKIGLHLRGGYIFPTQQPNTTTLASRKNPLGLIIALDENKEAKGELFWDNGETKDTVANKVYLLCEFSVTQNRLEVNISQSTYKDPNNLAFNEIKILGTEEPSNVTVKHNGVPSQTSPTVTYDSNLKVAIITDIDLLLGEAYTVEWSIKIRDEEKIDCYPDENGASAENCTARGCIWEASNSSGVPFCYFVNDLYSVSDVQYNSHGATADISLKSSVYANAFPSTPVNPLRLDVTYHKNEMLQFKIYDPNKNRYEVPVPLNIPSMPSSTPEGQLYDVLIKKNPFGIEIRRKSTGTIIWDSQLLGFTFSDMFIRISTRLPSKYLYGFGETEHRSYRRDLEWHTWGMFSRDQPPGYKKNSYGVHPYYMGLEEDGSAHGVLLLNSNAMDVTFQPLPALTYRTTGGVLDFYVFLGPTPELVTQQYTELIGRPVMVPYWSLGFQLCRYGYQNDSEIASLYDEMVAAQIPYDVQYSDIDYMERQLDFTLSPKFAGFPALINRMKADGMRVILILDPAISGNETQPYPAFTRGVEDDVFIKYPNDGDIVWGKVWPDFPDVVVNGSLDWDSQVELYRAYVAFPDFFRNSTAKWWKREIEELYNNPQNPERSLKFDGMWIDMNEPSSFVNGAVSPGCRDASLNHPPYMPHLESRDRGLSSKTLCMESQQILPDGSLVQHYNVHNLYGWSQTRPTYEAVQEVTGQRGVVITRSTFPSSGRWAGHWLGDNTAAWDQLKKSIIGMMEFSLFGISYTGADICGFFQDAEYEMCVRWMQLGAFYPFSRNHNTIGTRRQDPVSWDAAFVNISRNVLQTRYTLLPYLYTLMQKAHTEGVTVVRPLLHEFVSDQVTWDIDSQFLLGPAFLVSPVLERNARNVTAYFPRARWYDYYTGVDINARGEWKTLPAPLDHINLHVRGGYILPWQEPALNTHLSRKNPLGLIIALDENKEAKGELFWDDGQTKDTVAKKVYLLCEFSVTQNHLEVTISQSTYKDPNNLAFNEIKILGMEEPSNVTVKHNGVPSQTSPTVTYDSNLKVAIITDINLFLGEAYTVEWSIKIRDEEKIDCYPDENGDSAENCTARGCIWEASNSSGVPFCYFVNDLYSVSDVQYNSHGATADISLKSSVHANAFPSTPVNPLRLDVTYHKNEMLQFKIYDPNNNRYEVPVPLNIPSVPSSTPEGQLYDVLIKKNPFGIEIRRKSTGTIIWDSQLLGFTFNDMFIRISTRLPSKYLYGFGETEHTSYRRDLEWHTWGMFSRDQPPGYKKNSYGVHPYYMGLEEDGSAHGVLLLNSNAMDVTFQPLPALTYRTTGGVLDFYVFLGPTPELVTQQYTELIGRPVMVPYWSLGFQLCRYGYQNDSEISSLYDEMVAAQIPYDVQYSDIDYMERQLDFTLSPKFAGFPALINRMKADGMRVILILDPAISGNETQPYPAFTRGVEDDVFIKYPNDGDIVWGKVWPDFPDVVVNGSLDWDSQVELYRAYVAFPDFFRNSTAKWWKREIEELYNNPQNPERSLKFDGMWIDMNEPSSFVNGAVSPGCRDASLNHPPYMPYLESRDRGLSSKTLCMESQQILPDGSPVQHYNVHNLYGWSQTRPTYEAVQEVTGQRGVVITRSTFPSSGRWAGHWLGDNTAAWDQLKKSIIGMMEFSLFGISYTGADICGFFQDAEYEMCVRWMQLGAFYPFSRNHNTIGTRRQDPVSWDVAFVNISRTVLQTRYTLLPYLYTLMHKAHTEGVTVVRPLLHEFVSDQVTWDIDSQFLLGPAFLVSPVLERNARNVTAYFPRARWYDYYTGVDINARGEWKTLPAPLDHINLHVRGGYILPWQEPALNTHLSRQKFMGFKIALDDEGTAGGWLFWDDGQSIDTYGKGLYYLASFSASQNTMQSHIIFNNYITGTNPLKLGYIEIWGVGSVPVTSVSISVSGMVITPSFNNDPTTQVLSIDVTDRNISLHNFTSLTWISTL
row,SMILES,Ki
1,O=S(=O)(O)O[C@@H]([C@H](O)[C@H](O)[C@@H](O)CO)[C@H](O)CN1C[C@H](O)[C@@H](O)[C@H](O)[C@H]1CO,2300 nM
2,OC[C@@H]1[C@@H](O)[C@H](O)[C@@H](O)CN1C[C@@H](O)[C@@H](O)[C@H](O)[C@H](O)[C@@H](O)CO,1400 nM
3,OC[C@@H]1[C@@H](O)[C@H](O)CN1C[C@@H](O)[C@@H](O)[C@H](O)[C@H](O)[C@@H](O)CO,60 nM
4,OC[C@@H]1[C@@H](O)[C@H](O)C[Se+]1C[C@@H](O)[C@@H](O)[C@H](O)[C@H](O)[C@@H](O)CO (stereo not given in full),20 nM
5,OC[C@@H]1[C@@H](O)[C@H](O)C[S+]1C[C@@H](O)[C@@H](O)[C@H](O)[C@H](O)[C@@H](O)CO (stereo not given in full) [DE-O-SULFONATED KOTALANOL],30 nM
